# Test results taken from patent US20130085064A1, “PESTICIDAL MIXTURES CONTAINING ISOXAZOLINE DERIVATIVES AND INSECTICIDE OR NEMATOICIDAL BIOLOGICAL AGENT” (priority 2010, published 2013).
# Where “and” joins values, the source holds several entries; their conditions need not be identical. Equal values may be shown once. Read-outs that look alike come from different tables or passages of the source.
# Assays:
# Assay type in all cases: in vivo
# [1] = test system: Spodoptera littoralis (Egyptian cotton leaf worm); test: Spodoptera littoralis larvicide L1, feeding/contact, cotton leaf discs; conditions: single compound
# From the text: (§1) The action to be expected E for a given active ingredient combination obeys the so-called COLBY formula and can be calculated as follows (COLBY, S.R. “Calculating synergistic and antagonistic responses of herbicide combination”. Weeds, Vol. 15, pages 20-22; 1967):
# (§2) ppm=milligrams of active ingredient (=a.i.) per liter of spray mixture X=% action by active ingredient A) using p ppm of active ingredient Y=% action by active ingredient B) using q ppm of active ingredient.
# (§3) According to COLBY, the expected (additive) action of active ingredients A)+B) using p+q ppm of active ingredient is
# (§4) If the action actually observed (O) is greater than the expected action (E), then the action of the combination is super-additive, i.e. there is a synergistic effect. In mathematical terms the synergism factor SF corresponds to O/E. In the agricultural practice an SF of ≧1.2 indicates significant improvement over the purely complementary addition of activities (expected activity), while an SF of ≦0.9 in the practical application routine signals a loss of activity compared to the expected activity.
# Spodoptera Littoralis (Egyptian Cotton Leaf Worm)
# (Larvicide L1, Feeding/Contact)
# Cotton leaf discs are placed on agar in Petri dishes and sprayed with test solutions in an application chamber. After drying, the leaf discs are infested with 10 L1 larvae. The samples are checked for mortality 5 days after treatment. 3 replicates per treatment were evaluated. (1 PPM=1 mg l^−1)
# [2] = test system: Heliothis virescens (tobacco budworm); test: Heliothis virescens ovo-larvicide, feeding/contact, eggs on filter paper in Petri dishes; conditions: for AVERAGE DEAD IN % (EGGS) / AVERAGE DEAD IN % (LARVAE): single compound, 7 days
# From the text: as §1, §2, §3, §4
# Heliothis Virescens (Tobacco Budworm):
# (Ovo-Larvicide, Feeding/Contact)
# 30-35 fresh eggs (0-24 h old), deposited on filter paper, are placed in Petri dishes on top of a layer of artificial diet and 0.8 ml of diluted test solutions are pipetted onto them. After an incubation period of 7 days, samples are checked for egg and larval mortality. 3 replicates per treatment were evaluated.
# [3] = test system: Heliothis virescens (tobacco budworm); test: Heliothis virescens eggs in 24-well microtiter plate on artificial diet, larval mortality; conditions: for pest or weed control at 6.25 ppm / pest or weed control at 12.5 ppm / pest or weed control at 25 ppm / pest or weed control at 50 ppm / pest or weed control at 100 ppm / pest or weed control at 200 ppm / pest or weed control at 0.00625 ppm / pest or weed control at 0.0125 ppm / pest or weed control at 0.025 ppm / pest or weed control at 0.05 ppm / pest or weed control at 0.1 ppm / pest or weed control at 0.2 ppm: Heliothis virescens, 96 h, read-out: AVERAGE DEAD IN %
# Summary of the method: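 Eggs 0–24 h old on artificial diet were treated by pipetting test solutions in DMSO. Larval mortality scored after 4 days; combination effects assessed against Colby-expected action, with synergism factor = observed/expected.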
# [4] = test system: Tetranychus urticae (two spotted spider mite); test: Tetranychus urticae contact/feeding activity on bean plants, adult mortality
# From the text: as §1, §2, §3, §4
# Tetranychus Urticae (Two Spotted Spider Mite)
# (Contact/Feeding Activity)
# Bean plants are infested with mite populations of mixed ages. 1 day after infestation, plants are treated in a spray chamber with diluted test solutions. 1 and 8 days later, samples are checked for adult mortality. 2 replicates per treatment were evaluated.
# [5] = test system: Tetranychus urticae (two-spotted spider mite); test: Tetranychus urticae bean leaf discs in 24-well microtiter plates, mixed population mortality; conditions: 8 days
# From the text: as §1, §2, §3, §4
# Tetranychus Urticae (Two-Spotted Spider Mite)
# Bean leaf discs on agar in 24-well microtiter plates are sprayed with test solutions (DMSO). After drying, the leaf discs are infested with mite populations of mixed ages. 8 days later, discs are checked for mixed population mortality.
molecule,measurement,setting,value
"CN1COCN(Cc2cnc(Cl)s2)/C1=N\[N+](=O)[O-] [Thiamethoxam, thiamethoxam]",AVERAGE DEAD IN % AFTER 5 DAYS,[1]; 0.2 PPM AI,7% and 10%
same,AVERAGE DEAD IN % AFTER 5 DAYS,[1]; 0.2 ppm AI,10%
same,AVERAGE DEAD IN % AFTER 5 DAYS,[1]; 0.4 PPM AI,13%
same,AVERAGE DEAD IN % AFTER 5 DAYS,[1]; 0.4 ppm AI,13%
same,AVERAGE DEAD IN % AFTER 5 DAYS,[1]; 0.8 PPM AI,30%
same,AVERAGE DEAD IN % AFTER 5 DAYS,[1]; 0.8 ppm AI,30%
same,AVERAGE DEAD IN % (EGGS),[2]; 100 ppm AI,0%
same,AVERAGE DEAD IN % (LARVAE),[2]; 100 ppm AI,78%
same,AVERAGE DEAD IN % (EGGS),[2]; 200 ppm AI,0%
same,AVERAGE DEAD IN % (LARVAE),[2]; 200 ppm AI,80%
same,pest or weed control at 6.25 ppm,[3]; Thiamethoxam alone 6.25 ppm AI,0%
same,pest or weed control at 12.5 ppm,[3]; Thiamethoxam alone 12.5 ppm AI,0%
same,pest or weed control at 25 ppm,[3]; Thiamethoxam alone 25 ppm AI,0%
same,pest or weed control at 50 ppm,[3]; Thiamethoxam alone 50 ppm AI,0%
same,pest or weed control at 100 ppm,[3]; Thiamethoxam alone 100 ppm AI,25%
same,pest or weed control at 200 ppm,[3]; Thiamethoxam alone 200 ppm AI,65%
same,pest or weed control at 6.25 ppm,[3]; single compound at 6.25 ppm AI,0%
same,pest or weed control at 12.5 ppm,[3]; single compound at 12.5 ppm AI,0%
same,pest or weed control at 25 ppm,[3]; single compound at 25 ppm AI,0%
same,pest or weed control at 50 ppm,[3]; single compound at 50 ppm AI,0%
same,pest or weed control at 100 ppm,[3]; single compound at 100 ppm AI,25%
same,pest or weed control at 200 ppm,[3]; single compound at 200 ppm AI,65%
same,AVERAGE DEAD IN % AFTER 8 DAYS,[4]; 200 ppm alone,5%
same,AVERAGE DEAD IN % AFTER 1 DAY,[4]; Thiamethoxam alone 200 ppm AI,0%
same,AVERAGE DEAD IN %,[5]; 25 ppm alone,0%
same,AVERAGE DEAD IN %,[5]; 50 ppm alone,13%
same,AVERAGE DEAD IN %,[5]; 100 ppm alone,38%
same,AVERAGE DEAD IN %,[5]; 200 ppm alone,0%
same,AVERAGE DEAD IN %,[5]; 400 ppm alone,0%
same,AVERAGE DEAD IN %,[5]; 800 ppm alone,13%
same,AVERAGE DEAD IN %,"[5]; Thiamethoxam alone, 25 ppm, Table 122",0%
same,AVERAGE DEAD IN %,"[5]; Thiamethoxam alone, 50 ppm, Table 122",13%
same,AVERAGE DEAD IN %,"[5]; Thiamethoxam alone, 100 ppm, Table 122",38%
same,AVERAGE DEAD IN %,"[5]; Thiamethoxam alone, 200 ppm, Table 122",0%
same,AVERAGE DEAD IN %,"[5]; Thiamethoxam alone, 400 ppm, Table 122",0%
same,AVERAGE DEAD IN %,"[5]; Thiamethoxam alone, 800 ppm, Table 122",13%
abamectin,AVERAGE DEAD IN % AFTER 5 DAYS,[1]; 0.4 PPM AI,10% and 7%
same,AVERAGE DEAD IN % AFTER 5 DAYS,[1]; 0.8 PPM AI,13% and 10%
same,AVERAGE DEAD IN % AFTER 5 DAYS,[1]; 1.6 PPM AI,40% and 20%
same,activity on eggs,"[2]; egg mortality, 7 days incubation",inactive
same,AVERAGE DEAD IN % (LARVAE),[2]; 0.025 ppm AI,3%
same,AVERAGE DEAD IN % (LARVAE),[2]; 0.05 ppm AI,37%
same,AVERAGE DEAD IN % (LARVAE),[2]; 0.1 ppm AI,53%
same,AVERAGE DEAD IN %,[3]; single compound at 0.2 ppm AI,0%
same,AVERAGE DEAD IN %,[3]; single compound at 0.4 ppm AI,45%
same,AVERAGE DEAD IN %,[3]; single compound at 0.8 ppm AI,68%
same,AVERAGE DEAD IN %,[3]; single compound at 1.6 ppm AI,78%
same,AVERAGE DEAD IN %,[3]; single compound at 3.2 ppm AI,100%
same,AVERAGE DEAD IN %,[3]; single compound at 6.4 ppm AI,100%
same,AVERAGE DEAD IN % AFTER 8 DAYS,[4]; 0.0015 ppm alone,25%
same,AVERAGE DEAD IN % AFTER 8 DAYS,[4]; 0.003 ppm alone,20%
same,AVERAGE DEAD IN % AFTER 8 DAYS,[4]; 0.006 ppm alone,25%
same,AVERAGE DEAD IN % AFTER 1 DAY,[4]; Abamectin alone 0.0015 ppm AI,0%
same,AVERAGE DEAD IN % AFTER 1 DAY,[4]; Abamectin alone 0.003 ppm AI,0%
same,AVERAGE DEAD IN % AFTER 1 DAY,[4]; Abamectin alone 0.006 ppm AI,0%
same,AVERAGE DEAD IN %,[5]; 0.0002 ppm alone,0%
same,AVERAGE DEAD IN %,[5]; 0.0004 ppm alone,0%
same,AVERAGE DEAD IN %,[5]; 0.0008 ppm alone,0%
same,AVERAGE DEAD IN %,[5]; 0.0015 ppm alone,0%
same,AVERAGE DEAD IN %,[5]; 0.003 ppm alone,0%
same,AVERAGE DEAD IN %,[5]; 0.006 ppm alone,0%
same,AVERAGE DEAD IN %,[5]; 0.0125 ppm alone,0%
same,AVERAGE DEAD IN %,[5]; 0.025 ppm alone,0%
same,AVERAGE DEAD IN %,[5]; 0.05 ppm alone,85%
same,AVERAGE DEAD IN %,[5]; 0.1 ppm alone,85%
same,AVERAGE DEAD IN %,"[5]; Abamectin alone, 0.0002 ppm, Table 120",0%
same,AVERAGE DEAD IN %,"[5]; Abamectin alone, 0.0004 ppm, Table 120",0%
same,AVERAGE DEAD IN %,"[5]; Abamectin alone, 0.0008 ppm, Table 120",0%
same,AVERAGE DEAD IN %,"[5]; Abamectin alone, 0.0015 ppm, Table 120",0%
same,AVERAGE DEAD IN %,"[5]; Abamectin alone, 0.003 ppm, Table 120",0%
same,AVERAGE DEAD IN %,"[5]; Abamectin alone, 0.006 ppm, Table 120",0%
same,AVERAGE DEAD IN %,"[5]; Abamectin alone, 0.0125 ppm, Table 120",0%
same,AVERAGE DEAD IN %,"[5]; Abamectin alone, 0.025 ppm, Table 120",0%
same,AVERAGE DEAD IN %,"[5]; Abamectin alone, 0.05 ppm, Table 120",70%
same,AVERAGE DEAD IN %,"[5]; Abamectin alone, 0.1 ppm, Table 120",80%
"CC1(C)[C@H](C(=O)O[C@H](C#N)c2cccc(Oc3ccccc3)c2)[C@@H]1/C=C(\Cl)C(F)(F)F (racemic) [Lambda Cyhalothrin, lambda-cyhalothrin]",AVERAGE DEAD IN % AFTER 5 DAYS,[1]; 0.05 PPM AI,10% and 20%
same,AVERAGE DEAD IN % AFTER 5 DAYS,[1]; 0.05 ppm AI,20%
same,AVERAGE DEAD IN % AFTER 5 DAYS,[1]; 0.1 ppm AI,37%
same,AVERAGE DEAD IN % AFTER 5 DAYS,[1]; 0.2 ppm AI,57%
same,AVERAGE DEAD IN % (EGGS),[2]; 0.05 ppm AI,0%
same,AVERAGE DEAD IN % (LARVAE),[2]; 0.05 ppm AI,33%
same,AVERAGE DEAD IN % (EGGS),[2]; 0.1 ppm AI,17%
same,AVERAGE DEAD IN % (LARVAE),[2]; 0.1 ppm AI,100%
same,AVERAGE DEAD IN % (EGGS),[2]; 0.2 ppm AI,50%
same,AVERAGE DEAD IN % (LARVAE),[2]; 0.2 ppm AI,100%
same,pest or weed control at 0.00625 ppm,[3]; Lambda Cyhalothrin alone 0.00625 ppm AI,0%
same,pest or weed control at 0.0125 ppm,[3]; Lambda Cyhalothrin alone 0.0125 ppm AI,0%
same,pest or weed control at 0.025 ppm,[3]; Lambda Cyhalothrin alone 0.025 ppm AI,0%
same,pest or weed control at 0.05 ppm,[3]; Lambda Cyhalothrin alone 0.05 ppm AI,0%
same,pest or weed control at 0.1 ppm,[3]; Lambda Cyhalothrin alone 0.1 ppm AI,25%
same,pest or weed control at 0.2 ppm,[3]; Lambda Cyhalothrin alone 0.2 ppm AI,75%
same,pest or weed control at 0.00625 ppm,[3]; single compound at 0.00625 ppm AI,0%
same,pest or weed control at 0.0125 ppm,[3]; single compound at 0.0125 ppm AI,0%
same,pest or weed control at 0.025 ppm,[3]; single compound at 0.025 ppm AI,0%
same,pest or weed control at 0.05 ppm,[3]; single compound at 0.05 ppm AI,0%
same,pest or weed control at 0.1 ppm,[3]; single compound at 0.1 ppm AI,25%
same,pest or weed control at 0.2 ppm,[3]; single compound at 0.2 ppm AI,75%
same,AVERAGE DEAD IN % AFTER 1 DAY,[4]; 3.125 ppm alone,70%
same,AVERAGE DEAD IN % AFTER 1 DAY,[4]; 6.25 ppm alone,90%
same,AVERAGE DEAD IN % AFTER 8 DAYS,[4]; 6.25 ppm alone,85% and 90%
same,AVERAGE DEAD IN % AFTER 1 DAY,[4]; 12.5 ppm alone,83%
same,AVERAGE DEAD IN % AFTER 8 DAYS,[4]; 12.5 ppm alone,98% and 90%
same,AVERAGE DEAD IN % AFTER 1 DAY,[4]; Lambda Cyhalothrin alone 3.125 ppm AI,25%
same,AVERAGE DEAD IN % AFTER 1 DAY,[4]; Lambda Cyhalothrin alone 6.25 ppm AI,55%
same,AVERAGE DEAD IN % AFTER 1 DAY,[4]; Lambda Cyhalothrin alone 12.5 ppm AI,88%
